The text below walks through data of US9938261B2, “Heterocyclic compounds and methods of use thereof” (AMBIT BIOSCIENCES CORPORATION, priority 2011, dated 2018).

The target in test [1] is T1, PDGFRβ (Homo sapiens, UniProt P09619).
T1 construct: made in house
Put plainly: Competition binding assay, PDGFRβ Kd. The following applies: competition binding. An outline of the steps: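 Kinases as T7-phage fusions or HEK-293-expressed DNA-tagged constructs competed against immobilized biotinylated ligand on streptavidin beads, 1 h at room temperature in binding buffer. Bound kinase eluted and quantified by qPCR; Kd from eleven-point threefold dilution series.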

In test [2] the test system is M-NFS-60 cells. Nature of the test: M-NFS-60 cell proliferation assay (Alamar Blue). Conditions: Mus musculus; M-NFS-60 cell proliferation; read-out: CSF1R M-NFS-60 CTB:IC50. The test is classed as cell-based, mouse. The method, boiled down:
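Alamar Blue reduction (3 h; 560/590 nm) measured viability after 72 h, 37 °C treatment with nine half-log compound concentrations at 0.5% DMSO. Cells: M-CSF-dependent (20 ng/mL) murine M-NFS-60 in RPMI plus 10% FBS. IC50s, averaged from duplicates, reflect half-maximal inhibition of proliferation relative to control.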

In test [3] the target is kinase panel containing either 386 or 392 distinct kinases. Nature of the test: Kinase selectivity score S10 from competition binding panel. Conditions: 10 μM, panel of 386 or 392 distinct kinases. The method, boiled down: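 S10 is the number of kinases with percent-of-control under 10, divided by all distinct wild-type kinases tested, from a single 10 μM concentration. Binding measured by qPCR of kinase recovered from ligand-coated beads after 1 h equilibrium at room temperature; kinases were phage fusions or DNA-tagged HEK-293 products.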

The target of test [4] is CSF1R (Homo sapiens, UniProt P07333). Put plainly: HEK293 CSF1R phosphorylation MSD assay. Conditions: HEK293 cells, M-CSF stimulated CSF1R phosphorylation, MSD; read-out: HEK293 pCSF1R M-CSF MSD:IC50. The arrangement: expressed in transfected cells; host or cells: HEK293. The test is classed as cell-based. The method, boiled down: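 Ligand-induced CSF1R autophosphorylation was measured by MSD sandwich assay: CSF1R-FKBP from lysates captured via FK506, anti-phosphotyrosine readout. Cells were exposed to compound for 2 h (9-point, half-log, 0.5% DMSO) before 5 min 50 ng/mL M-CSF. Reported IC50 is the mean of duplicate-plate IC50s relative to DMSO control.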
Chain of CSF1R (P07333 20-972): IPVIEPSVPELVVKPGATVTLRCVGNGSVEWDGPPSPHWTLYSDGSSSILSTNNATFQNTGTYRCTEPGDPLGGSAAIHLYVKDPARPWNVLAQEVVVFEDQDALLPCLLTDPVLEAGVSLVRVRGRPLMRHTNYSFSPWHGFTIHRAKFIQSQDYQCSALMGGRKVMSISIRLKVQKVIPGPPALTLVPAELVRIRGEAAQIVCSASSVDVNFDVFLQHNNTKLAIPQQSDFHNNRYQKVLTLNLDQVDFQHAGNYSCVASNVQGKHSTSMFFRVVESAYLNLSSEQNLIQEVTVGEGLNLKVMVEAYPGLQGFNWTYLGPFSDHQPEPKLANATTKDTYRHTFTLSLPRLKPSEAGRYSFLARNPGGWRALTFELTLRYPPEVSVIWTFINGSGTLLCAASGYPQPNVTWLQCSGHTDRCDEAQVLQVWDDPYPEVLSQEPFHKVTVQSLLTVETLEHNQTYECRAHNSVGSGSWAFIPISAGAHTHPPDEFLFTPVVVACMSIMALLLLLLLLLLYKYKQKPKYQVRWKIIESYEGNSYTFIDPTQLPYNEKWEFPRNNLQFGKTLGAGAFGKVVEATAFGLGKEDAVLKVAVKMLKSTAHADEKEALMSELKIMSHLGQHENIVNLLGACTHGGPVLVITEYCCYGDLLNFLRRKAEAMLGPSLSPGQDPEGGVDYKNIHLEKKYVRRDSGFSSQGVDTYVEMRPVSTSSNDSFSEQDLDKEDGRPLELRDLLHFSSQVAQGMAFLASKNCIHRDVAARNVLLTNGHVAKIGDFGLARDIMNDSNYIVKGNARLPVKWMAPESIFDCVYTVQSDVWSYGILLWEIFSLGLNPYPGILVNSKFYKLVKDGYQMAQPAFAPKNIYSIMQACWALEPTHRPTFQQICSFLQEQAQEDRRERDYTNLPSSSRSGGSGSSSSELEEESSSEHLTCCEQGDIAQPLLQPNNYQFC

T1 sequence (P09619 33-1106): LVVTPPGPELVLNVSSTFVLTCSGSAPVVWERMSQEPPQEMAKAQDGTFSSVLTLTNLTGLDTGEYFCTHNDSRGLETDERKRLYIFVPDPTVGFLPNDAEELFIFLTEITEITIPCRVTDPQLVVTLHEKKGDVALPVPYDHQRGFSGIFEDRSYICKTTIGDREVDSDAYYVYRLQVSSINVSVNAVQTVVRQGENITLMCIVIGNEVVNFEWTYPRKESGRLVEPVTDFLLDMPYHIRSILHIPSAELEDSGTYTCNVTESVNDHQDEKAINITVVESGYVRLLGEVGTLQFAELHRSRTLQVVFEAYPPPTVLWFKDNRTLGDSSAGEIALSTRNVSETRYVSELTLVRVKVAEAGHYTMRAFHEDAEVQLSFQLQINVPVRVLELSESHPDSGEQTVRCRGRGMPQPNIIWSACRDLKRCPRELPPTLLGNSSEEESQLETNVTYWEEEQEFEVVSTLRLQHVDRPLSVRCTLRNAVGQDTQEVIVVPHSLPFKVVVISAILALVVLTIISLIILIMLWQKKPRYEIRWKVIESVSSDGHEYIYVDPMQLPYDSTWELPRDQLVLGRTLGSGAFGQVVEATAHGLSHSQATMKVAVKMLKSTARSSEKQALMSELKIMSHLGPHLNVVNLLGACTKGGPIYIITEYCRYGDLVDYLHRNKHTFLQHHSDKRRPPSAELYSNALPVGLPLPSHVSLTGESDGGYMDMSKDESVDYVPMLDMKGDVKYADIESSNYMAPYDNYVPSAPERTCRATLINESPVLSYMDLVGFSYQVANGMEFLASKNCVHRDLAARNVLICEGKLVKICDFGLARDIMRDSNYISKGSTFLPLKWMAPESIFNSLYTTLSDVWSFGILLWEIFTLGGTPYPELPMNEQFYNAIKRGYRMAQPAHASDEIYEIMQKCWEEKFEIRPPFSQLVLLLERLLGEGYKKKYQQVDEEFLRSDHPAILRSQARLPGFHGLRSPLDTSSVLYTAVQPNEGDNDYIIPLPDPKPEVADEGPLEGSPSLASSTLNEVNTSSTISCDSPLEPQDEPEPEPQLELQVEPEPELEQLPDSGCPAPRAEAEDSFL

A word on the Kd: it is the equilibrium constant for the complex coming apart. High values mean lower affinity, low ones higher affinity. As a reminder, the IC50 is the midpoint of a concentration-inhibition curve. In the case of `Cn1nnc(-c2ccc3c(c2)ncn3Cc2ccc3nc(N[C@@H]4CCC[C@@H](O)[C@H]4O)sc3c2)n1` [Example 236, (1R,2S,3R)-3-((6-((5-(2-methyl-2H-tetrazol-5-yl)-1H-benzo[d]imidazol-1-yl)methyl)benzo[d]thiazol-2-yl)amino)cyclohexane-1,2-diol], the Kd in test [1] was in the range of 50 to 500 nM. Further, the half-inhibitory concentration (IC50) was 50 to 400 nM in test [2] and 50 to 200 nM in test [4]. In test [3], the “Kinase specificity S(10)” value was “A (A≤0.01)”.
